In patent US20150159167A1, “Plants Tolerant to HPPD Inhibitor Herbicides” (Bayer CropScience AG, priority 2009, published 2015):

What was measured:
[1] = test system: tobacco calli containing HPPD SEQ ID No. 7 (Synechococcus sp.); assay: Rooting of calli on media with tembotrione; assay type: cell-based, Nicotiana tabacum; conditions: 6 to 12 weeks
Procedure: The leaf disks were co-cultivated for 2 days with Agrobacterium tumefaciens cells containing either the binary vector FMP38ebv or AtHPPDbv. Then the leaf disks were transferred to a media allowing the regeneration of shoots for 6 weeks on MS (Musharige and Skoog, (1962), Physiol Plant 15(3): 473-497) media supplemented with BAP ([…]; Benzylaminopurine), carbenicillin ([…]), cefotaxine ([…]), kanamycin (75 mg/mL) and tembotrione (10^−6 M)
Regenerated calli were transferred on media to induce the development of roots for 6 to 12 weeks: MS (1/2), supplemented with carbenicillin (250 mg/mL), cefotaxine (250 mg/mL), kanamycin (75 mg/mL), and tembotrione (10^−6 M).
Regenerated shoot calli from a cell transformed with a nucleic acid sequence encoding an HPPD comprising SEQ ID No. 11 (Arabidopsis thaliana) or SEQ ID No. 7 (Synechococcus sp.) were transferred to a media inducing root growth which media was further supplemented with the HPPD inhibitor tembotrione for 6 to 12 weeks.

[2] = test system: Synechococcus sp. HPPD "SEQ ID No. 5"; assay: HPPD activity in presence of HPPD inhibitors (pI50, % inhibition); assay type: biochemical
From the text: In this content, pI50-value means the log value of the concentration of inhibitor necessary to inhibit 50% of the enzyme activity in molar concentration.

[3] = biological target: Synechococcus sp. HPPD "SEQ ID No. 5"; assay: HPLC assay of HPPD activity, in vitro kinetic properties; assay type: biochemical; conditions: 2 mM HPP
Procedure: Km, Vmax, and kcat values for different HPPD enzyme preparations and Ki, K1=Kon, and K−1=Koff for different HPPD inhibitors were determined using a HPLC assay for measurements of HPPD activity. […] All assays were started by the addition of HPPD enzyme to the assay mixture and stopped at a series of times between 0 and 240 s by addition of 200 μl of the reaction mixture to reaction assay tubes containing 20 μl 10% perchloric acid. Precipitated protein was pelleted by a 5 minute centrifugation at 10,000 g. […] A standard set of concentrations of HGA were used to provide a standard curve in order to calibrate the 292 nm absorbance of the HGA peak versus HGA concentration.
For Km and Vmax value determinations the initial rates of the HPPD reaction at different substrate concentrations were determined from plots of HGA formed versus time and fitted to the Michaelis-Menten equation for unireactant enzymes using the ID Business Solutions Ltd. (idbs.com) XLfit software suite. For the determination of Ki, K1=Kon, and K=−1=Koff values the time-courses of the HPPD reaction at different inhibitor concentrations were fitted to the equations for Mechanism A, competitive inhibition, for tight-binding inhibitors (Cha, S. (1975) Tight-binding inhibitors-I. Kinetic behaviour. Biochemical Pharmacology 24, 2177-2185) using the ID Business Solutions Ltd. XLfit software suite
In below given table 1, “Km” (Michaelis-Menten constant) means the kinetic parameter that is used to characterise an enzyme, and it is defined as the concentration of substrate that permits half maximal rate of the reaction. Km is further defined as the substrate concentration at which the reaction rate reaches half of its maximum value (Vmax/2) where Vmax has the meaning of being the maximum velocity of the reaction.
Kon=K1 equals the association rate constant of the […] binding and Koff=K−1 equals the rate constant of the enzyme-inhibitor complex dissociation. Ki defines the inhibition constant.

[4] = test system: T0 tobacco plants containing FMP38t; assay: Response of T0 tobacco plants expressing the FMP38 HPPD to tembotrione; assay type: in vivo, Nicotiana tabacum; conditions: 100 g AI/ha, two weeks after the treatment
From the text: As an example, rooted plants containing the T-DNA PromCaMV35S-OTP-HIS6-FMP38t-TerCaMV35S, will be transferred to the greenhouse under standard growth conditions. Following a period of acclimation of two weeks, the T0 plants will be treated with a mixture containing 100 g tembotrione/ha prepared from a WP20 (wettable powder 20%) formulation supplemented with ammonium sulfate and methyl ester raps oil. Two weeks after the treatment, the symptoms due to the application of the herbicides will be evaluated. The plants are classified in four categories. The treated plants evaluated as “0” are looking like the untreated tobacco plants. The plants evaluated as “1” display temporarily light bleaching phenotype due to the application of the herbicides. The plants evaluated as “2” display permanent light to strong bleaching symptoms. Finally the plants evaluated as “3” are looking like wild type tobacco plants submitted to the same treatment.

SMILES: CS(=O)(=O)c1ccc(C(=O)C2C(=O)CCCC2=O)c(Cl)c1COCC(F)(F)F [Tembotrione, 2-[2-chloro-4-(methylsulfonyl)-3-[(2,2,2,-tri-fluoroethoxy)methyl]benzoyl]-1,3-cyclo-hexanedione]
- % Elongation & rooting on 10^−6 M tembotrione [1]: 80%
- pI50 ([2]; 2 mM HPP, 3 minutes incubation): 5.6
- percentage of inhibition ([2]; 5.0 × 10^−6 M inhibitor, compared to activity in absence of inhibitor): 79%
- Ki [3]: 1200 nM
- k1 (Kon) [3]: 41000 M⁻¹ s⁻¹
- k−1 (Koff) [3]: 0.05 s⁻¹
- number of plants in category 0 (looking like the untreated tobacco plants) [4]: 1
- number of plants in category 1 (temporarily light bleaching phenotype) [4]: 1
- number of plants in category 3 (looking like wild type tobacco plants submitted to the same treatment) [4]: 14
